{"source": "patent US9073935B2", "about": "“Substituted benzylspiroindolin-2-one analogs as positive allosteric modulators of the muscarinic acetylcholine receptor M1” (VANDERBILT UNIVERSITY, priority 2011, dated 2015)", "molecular_target": "T1, mAChR M1 (UniProt P11229)", "T1 sequence (P11229 1-460)": "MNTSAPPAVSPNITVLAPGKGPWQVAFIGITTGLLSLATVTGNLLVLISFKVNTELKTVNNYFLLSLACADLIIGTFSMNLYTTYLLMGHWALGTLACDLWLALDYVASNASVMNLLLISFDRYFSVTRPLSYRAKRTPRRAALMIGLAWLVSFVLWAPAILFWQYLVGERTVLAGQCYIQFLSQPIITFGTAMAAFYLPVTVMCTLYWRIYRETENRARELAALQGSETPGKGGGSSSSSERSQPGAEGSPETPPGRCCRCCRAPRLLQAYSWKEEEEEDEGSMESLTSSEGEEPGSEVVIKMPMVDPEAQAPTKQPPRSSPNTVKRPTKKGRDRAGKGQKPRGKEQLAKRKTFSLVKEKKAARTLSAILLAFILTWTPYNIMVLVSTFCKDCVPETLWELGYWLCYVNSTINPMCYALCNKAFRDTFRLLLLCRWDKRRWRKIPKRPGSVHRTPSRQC", "test": "mAChR M1 cell-based functional assay (calcium mobilization, potentiation of EC20 acetylcholine response)", "conditions": "for Emax: % ACh maximum at 30 μM; for EC50: CHO-K1 cells expressing mAChR M1, increase in EC20 acetylcholine response, >10 μM estimated where no plateau in the curve", "procedure": "Chinese hamster ovary (CHO-K1) cells stably expressing rat (r)M1 were purchased from the American Type Culture Collection and cultured according to their indicated protocol. […] To make stable rM2, hM2, rM3, hM4, and rM4 cell lines for use in calcium mobilization assays, these cells also were stably transfected with a chimeric G-protein (Gqi5) (provided by B. R. Conklin, University of California, San Francisco) using Lipofectamine 2000. rM1, hM1, rM3, hM3, rM5, and hM5 cells were grown in Ham's F-12 medium containing 10% heat-inactivated fetal bovine serum (FBS), 20 mM HEPES, and 50 μg/mL G418 sulfate. rM2-Gqi5, hM2-Gqi5, and hM4-Gqi5 cells were grown in the same medium also containing 500 μg/mL Hygromycin B. Stable rM4-Gqi5 cells were grown in DMEM containing 10% heat-inactivated FBS, 20 mM HEPES, 400 μg/mL G418 sulfate, and 500 μg/mL Hygromycin B.\nFor high throughput measurement of agonist-evoked increases in intracellular calcium, CHO-K1 cells stably expressing muscarinic receptors were plated in growth medium lacking G418 and hygromycin at 15,000 cells/20 μL/well in Greiner 384-well black-walled, tissue culture (TC)-treated, clear-bottom plates (VWR). Cells were incubated overnight at 37° C. and 5% CO2. […] Compound master plates were formatted in an 11 point CRC format (1:3 dilutions) in 100% DMSO with a starting concentration of 10 mM using the BRAVO liquid handler (Agilent). Test compound CRCs were then transferred to daughter plates ([…]) using the Echo acoustic plate reformatter (Labcyte, Sunnyvale, Calif.) and then diluted into assay buffer (40 μL) to a 2× stock using a Thermo Fisher Combi (Thermo Fisher Scientific, Waltham, Mass.).\nCalcium flux was measured using the Functional Drug Screening System (FDSS) 6000 (Hamamatsu Corporation, Tokyo, Japan) as an increase in the fluorescent static ratio. Compounds were applied to cells (20 μL, 2×) using the automated system of the FDSS 6000 at 4 s into the 300 s protocol and the data were collected at 1 Hz. […] Agonist activity was analyzed as a concentration-dependent increase in calcium mobilization upon compound addition. Positive allosteric modulator activity was analyzed as a concentration-dependent increase in the EC20 acetylcholine response. Antagonist activity was analyzed as a concentration-dependent decrease in the EC80 acetylcholine response. Concentration-response curves were generated using a four-parameter logistical equation in XLfit curve fitting software (IDBS, Bridgewater, N.J.) for Excel (Microsoft, Redmond, Wash.) or Prism (GraphPad Software, Inc., San Diego, Calif.).\nThe calcium mobilization assay was also used to determine “efficacy”. In the context of the assays carried out for the data in Table II, “efficacy” (% ACh at 30 μM) is defined as the maximal response in the calcium flux as determined by the sigmoidal curve fit of the concentration response curve, or in the absence of an acceptable curve fit, the response recorded at 30 μM test compound, stated as a percentage of the response elicited by a concentration of Ach that induces approximately 80% of a maximal (i.e. saturating) ACh response.\nSubstituted benzylspiroindolin-2-one analogs were synthesized as described above. Activity (EC50 and Emax) was determined in the mAChR M1 cell-based functional assay as described above and the data are shown in Table III. The compound number corresponds to the compound numbers used in Tables I and II."}
{"smiles": "Cn1cc(-c2ccc(CN3C(=O)C4(CCN(C5COC5)CC4)c4ccccc43)c(F)c2)cn1", "note": "[Compound B55]", "values": [{"measurement": "Emax", "value": 45, "unit": "%"}, {"measurement": "EC50", "value": 7, "unit": "µM"}]}
{"smiles": "Cn1cc(-c2ccc(CN3C(=O)C4(CCCO4)c4ccccc43)cc2)cn1", "note": "(stereo not shown) [Compound B56, 1′-(4-(1-methyl-1H-pyrazol-4-yl)benzyl)-4,5-dihydro-3H-spiro[furan-2,3′-indolin]-2′-one]", "values": [{"measurement": "Emax", "value": 45, "unit": "%"}, {"measurement": "EC50", "value": 7.8, "unit": "µM"}]}
{"smiles": "Cn1cc(-c2ccc(CN3C(=O)C4(CCN(Cc5ccccc5)C4)c4ccccc43)c(F)c2)cn1", "note": "(stereo not shown) [Compound B57]", "values": [{"measurement": "Emax", "value": 36, "unit": "%"}, {"measurement": "EC50", "value": "> 10", "unit": "µM"}]}
{"smiles": "Cn1cc(-c2ccc(CN3C(=O)C4(CCN(C5CCC(F)(F)CC5)C4)c4ccccc43)c(F)c2)cn1", "note": "(stereo not shown) [Compound B59]", "values": [{"measurement": "Emax", "value": 53, "unit": "%"}, {"measurement": "EC50", "value": "> 10", "unit": "µM"}]}
{"smiles": "CC1CCCCC1N1CCC2(C1)C(=O)N(Cc1ccc(-c3cnn(C)c3)cc1F)c1ccccc12", "note": "(stereo not shown) [Compound B60]", "values": [{"measurement": "Emax", "value": 39, "unit": "%"}, {"measurement": "EC50", "value": "> 10", "unit": "µM"}]}
{"smiles": "Cn1cc(-c2ccc(CN3C(=O)C4(CCN(CC5CCCCC5)C4)c4ccccc43)c(F)c2)cn1", "note": "(stereo not shown) [Compound B61]", "values": [{"measurement": "Emax", "value": 36, "unit": "%"}, {"measurement": "EC50", "value": "> 10", "unit": "µM"}]}
{"smiles": "Cn1cc(-c2ccc(CN3C(=O)C4(CCN(C(=O)C5CCCCC5)C4)c4ccccc43)c(F)c2)cn1", "note": "(stereo not shown) [Compound B62]", "values": [{"measurement": "Emax", "value": 54, "unit": "%"}, {"measurement": "EC50", "value": "> 10", "unit": "µM"}]}
{"smiles": "CC(=O)N1CCC2(C1)C(=O)N(Cc1ccc(-c3cnn(C)c3)cc1F)c1ccccc12", "note": "(stereo not shown) [Compound B63, 1′-acetyl-1-(2-fluoro-4-(1-methyl-1H-pyrazol-4-yl)benzyl)spiro[indoline-3,3′-pyrrolidin]-2-one]", "values": [{"measurement": "Emax", "value": 54, "unit": "%"}, {"measurement": "EC50", "value": "> 10", "unit": "µM"}]}
{"smiles": "CN1CCCC12C(=O)N(Cc1ccc(-c3cnn(C)c3)cc1)c1ccccc12", "note": "(stereo not shown) [Compound B64, 1′-methyl-1-(4-(1-methyl-1H-pyrazol-4-yl)benzyl)spiro[indoline-3,2′-pyrrolidin]-2-one]", "values": [{"measurement": "Emax", "value": 48, "unit": "%"}, {"measurement": "EC50", "value": "> 10", "unit": "µM"}]}
{"smiles": "Cn1cc(-c2ccc(CN3C(=O)C4(CCN(S(C)(=O)=O)C4)c4ccccc43)c(F)c2)cn1", "note": "(stereo not shown) [Compound B65, 1-(2-fluoro-4-(1-methyl-1H-pyrazol-4-yl)benzyl)-1′-(methylsulfonyl)spiro[indoline-3,3′-pyrrolidin]-2-one]", "values": [{"measurement": "Emax", "value": 35, "unit": "%"}, {"measurement": "EC50", "value": "> 10", "unit": "µM"}]}
{"smiles": "Cn1cc(-c2ccc(CN3C(=O)C4(CCN(C5CCC5)CC4)c4ccccc43)c(F)c2)cn1", "note": "[Compound B66]", "values": [{"measurement": "Emax", "value": 32, "unit": "%"}, {"measurement": "EC50", "value": "> 10", "unit": "µM"}]}
{"smiles": "Cn1cc(-c2ccc(CN3C(=O)C4(CCN(C5CCOCC5)CC4)c4ccccc43)c(F)c2)cn1", "note": "[Compound B69]", "values": [{"measurement": "Emax", "value": 41, "unit": "%"}, {"measurement": "EC50", "value": "> 10", "unit": "µM"}]}
{"smiles": "Cn1cc(-c2ccc(CN3C(=O)C4(CCN(C5CCOC5)CC4)c4ccccc43)c(F)c2)cn1", "note": "(stereo not shown) [Compound B71]", "values": [{"measurement": "Emax", "value": 36, "unit": "%"}, {"measurement": "EC50", "value": "> 10", "unit": "µM"}]}
{"smiles": "Cn1cc2c(-c3cc(F)c(CN4C(=O)C5(CCNC5)c5ccccc54)c(F)c3)cccc2n1", "note": "(stereo not shown) [Compound B74]", "values": [{"measurement": "Emax", "value": 69, "unit": "%"}, {"measurement": "EC50", "value": 7.2, "unit": "µM"}]}
{"smiles": "CN1CCC2(C1)C(=O)N(Cc1c(F)cc(-c3cccc4nn(C)cc34)cc1F)c1ccccc12", "note": "(stereo not shown) [Compound B75]", "values": [{"measurement": "Emax", "value": 66, "unit": "%"}, {"measurement": "EC50", "value": 5.4, "unit": "µM"}]}
{"smiles": "Cn1cc2c(-c3cc(F)c(CN4C(=O)C5(CCN(C(=O)OC(C)(C)C)C5)c5ccccc54)c(F)c3)cccc2n1", "note": "(stereo not shown) [Compound B76]", "values": [{"measurement": "Emax", "value": "<30", "unit": "%"}, {"measurement": "EC50", "value": "> 10", "unit": "µM"}]}
{"smiles": "CN1CCC2(CC1)C(=O)N(Cc1c(F)cc(-c3ccc4nn(C)cc4c3)cc1F)c1ccccc12", "note": "[Compound B77]", "values": [{"measurement": "Emax", "value": 26, "unit": "%"}, {"measurement": "EC50", "value": "> 10", "unit": "µM"}]}
{"smiles": "CN1CCC2(CC1)C(=O)N(Cc1c(F)cc(-c3ccc4c(c3)CC(=O)N4)cc1F)c1ccccc12", "note": "[Compound B78]", "values": [{"measurement": "Emax", "value": 38, "unit": "%"}, {"measurement": "EC50", "value": 6.6, "unit": "µM"}]}
{"smiles": "CN1CCC2(CC1)C(=O)N(Cc1c(F)cc(-c3cccc4nn(C)cc34)cc1F)c1ccccc12", "note": "[Compound B79]", "values": [{"measurement": "Emax", "value": "<30", "unit": "%"}, {"measurement": "EC50", "value": "> 10", "unit": "µM"}]}
{"smiles": "CN1CCCC12C(=O)N(Cc1c(F)cc(-c3cccc4nn(C)cc34)cc1F)c1ccccc12", "note": "(stereo not shown) [Compound B80]", "values": [{"measurement": "Emax", "value": "<30", "unit": "%"}, {"measurement": "EC50", "value": "> 10", "unit": "µM"}]}
